In US20140228372A1 (priority 2011, published 2014):

melting point: 249 to 251 °C
SMILES: Cc1cc(C(F)(F)F)nn1CC(=O)N1CCC(c2csc(NC(=O)Cc3c(F)cccc3Cl)n2)CC1 [I.as.001, 2-(2-chloro-6-fluoro-phenyl)-N-(4-{1-[2-(5-methyl-3-trifluoromethyl-pyrazol-1-yl)-acetyl]-piperidin-4-yl}-thiazol-2-yl)-acetamide]
